According to patent publication US9000010B2, “Alkyl-heterocycle carbamate derivatives, their preparation and their therapeutic application” (Sanofi, priority 2010, dated 2015):

How the values were obtained:
[1] = target: T1, FAAH (Fatty Acid Amide Hydrolase) (Mus musculus, UniProt O08914); test: Radioenzymatic test of FAAH inhibition: hydrolysis of anandamide [ethanolamine 1-3H] by mouse brain membrane homogenates; format: biochemical; conditions: mouse brain membrane homogenate; preincubation 20 min at 25° C.; anandamide 10 μM; read-out: CI50 (concentration which inhibits the control enzymatic activity of FAAH by 50%)
T1 construct: The membrane homogenates are prepared at the time of use by homogenization of the tissues; from tissue; host or cells: mouse brain (minus the cerebellum), membrane homogenate
T1 sequence (O08914 1-579): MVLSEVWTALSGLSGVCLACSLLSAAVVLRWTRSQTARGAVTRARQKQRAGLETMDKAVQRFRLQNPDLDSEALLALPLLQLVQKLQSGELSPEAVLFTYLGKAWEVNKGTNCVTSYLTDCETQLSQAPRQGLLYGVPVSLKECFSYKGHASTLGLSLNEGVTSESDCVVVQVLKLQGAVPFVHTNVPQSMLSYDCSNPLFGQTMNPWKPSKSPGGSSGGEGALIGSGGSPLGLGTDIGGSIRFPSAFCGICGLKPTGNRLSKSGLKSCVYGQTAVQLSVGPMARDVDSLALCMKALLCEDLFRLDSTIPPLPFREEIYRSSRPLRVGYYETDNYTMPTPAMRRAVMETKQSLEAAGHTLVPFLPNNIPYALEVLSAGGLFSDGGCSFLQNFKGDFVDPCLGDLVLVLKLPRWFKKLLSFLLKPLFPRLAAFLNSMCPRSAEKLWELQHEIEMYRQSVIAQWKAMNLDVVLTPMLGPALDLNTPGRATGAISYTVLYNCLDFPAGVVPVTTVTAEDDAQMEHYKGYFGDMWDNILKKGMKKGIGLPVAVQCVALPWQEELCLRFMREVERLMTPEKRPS
Protocol: The compounds of the invention form the subject of pharmacological trials which make it possible to determine their inhibitory effect on the enzyme FAAH (Fatty Acid Amide Hydrolase).
Thus, mouse brains (minus the cerebellum) are removed and stored at −80° C. The membrane homogenates are prepared at the time of use by homogenization of the tissues using a Precellys® device in the reaction buffer (Tris-HCl 10 mM pH=8, NaCl 150 mM and ethylenediaminetetraacetic acid (EDTA) 1 mM). The enzymatic reaction is carried out in 96-well MultiScreen filtration plates in a final volume of 70 μl. Reaction buffer supplemented with bovine serum albumin free from fatty acids (BSA, 1 mg/ml) is used for the enzymatic reaction, the dilution of the compounds and the dilution of the anandamide [ethanolamine 1-^3H]. Reaction buffer comprising the BSA (43 μl/well), the diluted test compounds at different concentrations (7 μl/well comprising 1% of DMSO) and the membrane preparation (10 μl/well, i.e. 200 μg of tissue per trial) are successively added to the wells. After preincubating the compounds with the enzyme at 25° C. for 20 minutes, the reaction is initiated by the addition of anandamide [ethanolamine 1-^3H] (specific activity of 15-20 Ci/mmol) diluted with cold anandamide (10 μl/well, final concentration of 10 μM, 0.01 μCi, per trial). After incubating at 25° C. for 20 minutes, the enzymatic reaction is halted by addition of a […] active charcoal solution prepared in a 1.5M NaCl and 0.5M HCl buffer (50 μl/well). The mixture is stirred for 10 minutes and then the aqueous phase comprising the [1-^3H]ethanolamine is recovered by filtration under vacuum and counted by liquid scintillation.

Q: With O=C(OCc1cscn1)N1CCC(COc2cnc3ccccc3c2)C1 (racemic) [No. 26, Thiazol-4-ylmethyl (+/−)-3-(quinolin-3-yloxymethyl)-pyrrolidine-1-carboxylate] as the compound, how does the melting point read?
A: 83 to 85 °C

Q: And the IC50 [1]?
A: 86 nM

Q: Which results are given for O=C(OCc1nccs1)N1CCC(COc2ccc3c(Cl)cccc3c2)C1 (racemic) [No. 196, Thiazol-2-ylmethyl (+/−)-3-(5-chloronaphth-2-yloxymethyl)pyrrolidine-1-carboxylate]?
A: melting point: 100 to 102 °C; IC50 [1]: 252 nM

Q: For NC(=O)c1cc(COC(=O)N2CC[C@@H](COc3ccc4ccccc4c3)C2)on1 (single isomer, unassigned) [No. 200], which melting point is on record?
A: 138 to 140 °C

Q: What about the IC50 [1] of the same compound?
A: 122 nM

Q: Which melting point does the source give for NC(=O)c1cc(COC(=O)N2CC[C@H](COc3ccc4ccccc4c3)C2)on1 (single isomer, unassigned) [No. 202] here?
A: 139 to 141 °C

Q: And the IC50 [1]?
A: 8 nM

Q: Which IC50 [1] does the source give for CCCCOc1cccc(OCCC2CCN(C(=O)OCc3cscn3)CC2)c1 [No. 90, Thiazol-4-ylmethyl 4-[2-(3-butoxyphenoxy)ethyl]-piperidine-1-carboxylate] here?
A: 92 nM

Q: For NC(=O)c1cc(COC(=O)N2CCC(CCOc3ccc(OC(F)(F)F)cc3)CC2)on1 [No. 199, 3-Carbamoylisoxazol-5-ylmethyl 4-[2-(4-{trifluoromethoxy}phenoxy)ethyl]piperidine-1-carboxylate], which melting point is on record?
A: 112 to 115 °C

Q: And the IC50 [1]?
A: 350 nM
